Laboratory results as given in patent publication US20260283996A1, “DECANOIC ACID AND ITS COMPOSITIONS FOR USE IN THE PREVENTION AND/OR TREATMENT OF PEROXISOMAL DISORDERS” (SOCIÉTÉ DES PRODUITS NESTLÉ S.A., priority 2023, published 2026).

Legend:
Format in all cases: cell-based
Pex11a = experiment: expression of Pex11a in SH-SY5Y cells; conditions: 250 μM, 6 days (FIG. 1B)
Description: (§1) SH-SY5Y cells were stored frozen and cells with passage numbers between 20 and 24 were utilized. When required, SH-SY5Y cells were thawed at 20-25° C. and quickly seeded at a density of 13.3×10^3 cell/cm^2 in 75 cm^2 flasks. SH-SY5Y cells were then grown in media containing 1:1 DMEM/F-12+100 mL/L FBS+10 mL/L I-glutamine at +37° C. and 5% CO2. SH-SY5Y cells were exposed to 250 μM decanoic acid (C10) or octanoic acid (C8) for 6 days.
(§2) To assess effects upon peroxisomal content and function, the following parameters were studied; (a) activity of the peroxisomal marker enzyme, acyl CoA oxidase, (b) expression of Pex11a, a gene associated with peroxisomal biogenesis and (c) evaluation of peroxisomal fatty acid beta oxidation by monitoring the chain shortening of a very long chain fatty acid, C22, to C18, C16 and C14.

acyl CoA oxidase = acyl CoA oxidase activity in SH-SY5Y cells; conditions: 250 μM, 6 days (FIG. 1A)
Description: as §1, §2

SH-SY5Y cells = experiment: peroxisomal fatty acid beta oxidation (chain shortening of C22 to C18, C16 and C14) in SH-SY5Y cells; conditions: 250 μM, 6 days, chain shortening of C22 to C18, C16 and C14 (FIG. 1C)
Description: as §1, §2

CCCCCCCCCC(=O)O [C10, Decanoic acid]
Pex11a expression (Pex11a): increased Pex11a | acyl CoA oxidase activity (acyl CoA oxidase): increase in acyl CoA oxidase activity | capacity to perform peroxisomal beta oxidation (SH-SY5Y cells): increased capacity to perform peroxisomal beta oxidation
